Assay results: publication PMC10709440, “High-throughput ligand profile characterization in novel cell lines expressing seven heterologous insect olfactory receptors for the detection of volatile plant biomarkers” (Scientific Reports, 2023)
Where two headings read alike, the source gives them in different places.

Tests used:
[1] = biological target: T1, Drosophila OR13a (Drosophila melanogaster, UniProt Q9VXL0); assay: Calcium ion fluorescence (GCaMP6) assay, OR13a stable HEK293 cell line; assay type: cell-based
T1 construct: expressed in transfected cells
T1 sequence (Q9VXL0 1-418): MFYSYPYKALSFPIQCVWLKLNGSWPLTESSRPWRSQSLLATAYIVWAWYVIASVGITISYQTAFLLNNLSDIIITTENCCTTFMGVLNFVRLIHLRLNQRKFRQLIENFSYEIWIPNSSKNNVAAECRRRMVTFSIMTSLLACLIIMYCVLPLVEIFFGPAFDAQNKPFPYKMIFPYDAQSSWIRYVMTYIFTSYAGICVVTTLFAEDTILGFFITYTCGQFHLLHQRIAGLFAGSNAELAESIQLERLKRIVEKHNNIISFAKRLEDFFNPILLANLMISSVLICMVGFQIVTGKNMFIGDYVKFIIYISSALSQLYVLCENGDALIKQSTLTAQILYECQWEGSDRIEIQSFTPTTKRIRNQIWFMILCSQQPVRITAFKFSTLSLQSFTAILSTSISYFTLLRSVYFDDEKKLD
T1 sequence (Q9VNB5 1-486 partner): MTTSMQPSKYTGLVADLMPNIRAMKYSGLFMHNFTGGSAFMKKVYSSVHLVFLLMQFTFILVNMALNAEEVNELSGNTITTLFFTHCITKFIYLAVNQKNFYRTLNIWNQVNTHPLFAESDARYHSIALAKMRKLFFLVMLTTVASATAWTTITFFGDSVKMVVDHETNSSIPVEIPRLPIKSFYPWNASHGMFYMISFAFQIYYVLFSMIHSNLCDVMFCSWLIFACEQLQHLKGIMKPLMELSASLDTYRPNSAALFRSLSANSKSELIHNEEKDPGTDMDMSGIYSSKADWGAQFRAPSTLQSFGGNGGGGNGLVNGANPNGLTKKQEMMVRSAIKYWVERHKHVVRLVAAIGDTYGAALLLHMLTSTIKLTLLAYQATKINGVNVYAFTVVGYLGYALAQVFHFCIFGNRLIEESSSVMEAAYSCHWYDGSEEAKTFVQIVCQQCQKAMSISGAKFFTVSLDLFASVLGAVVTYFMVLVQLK
Method in brief: (§1)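 HEK293 lines stably expressing each Drosophila OR with GCaMP6, doxycycline-induced (1 μg/mL) 48 or 72 h. Fluorescence recorded 5 s baseline then 30 s after VOC injection at pH 7.3; ΔF=(FMAX−F0)/F0, normalized to 50 µM VUAA1 response per line, triplicate wells averaged; concentration series 0.01–100 μM.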

[2] = biological target: T2, Drosophila OR98a (Drosophila melanogaster, UniProt Q9VAZ3); assay: Calcium ion fluorescence (GCaMP6) assay, OR98a stable HEK293 cell line; assay type: cell-based; conditions: for Average response: average of biological replicates, fraction of VUAA1 response
T2 construct: expressed in transfected cells
T2 sequence (Q9VAZ3 1-397): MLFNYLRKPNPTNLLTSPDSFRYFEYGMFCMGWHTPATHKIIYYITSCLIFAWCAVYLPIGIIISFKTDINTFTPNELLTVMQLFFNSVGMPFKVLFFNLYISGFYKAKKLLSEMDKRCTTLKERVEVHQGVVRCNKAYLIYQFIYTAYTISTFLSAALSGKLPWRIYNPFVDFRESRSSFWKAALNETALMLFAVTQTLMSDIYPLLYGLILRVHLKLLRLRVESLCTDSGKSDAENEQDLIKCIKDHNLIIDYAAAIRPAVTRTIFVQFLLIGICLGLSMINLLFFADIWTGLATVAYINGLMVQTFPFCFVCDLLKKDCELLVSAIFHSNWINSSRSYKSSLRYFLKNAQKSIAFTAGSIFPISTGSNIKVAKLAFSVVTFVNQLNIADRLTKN
T2 sequence (Q9VNB5 1-486 partner): T1 sequence (Q9VNB5 1-486 partner)
Method in brief: as §1

[3] = HEK293, read-out: OR13a Average response (VUAA1-normalized), 1 μM VOC, 50 μM VUAA1 = 1, responses not exceeding 0.05 considered 0
[4] = HEK293, read-out: OR13a Average response (VUAA1-normalized), 10 μM VOC, 50 μM VUAA1 = 1, responses not exceeding 0.05 considered 0
[5] = HEK293, read-out: OR13a Average response (VUAA1-normalized), 100 μM VOC, 50 μM VUAA1 = 1, responses not exceeding 0.05 considered 0
[6] = HEK293, read-out: OR13a response (VUAA1-normalized response), VOC concentration 1 μM
[7] = HEK293, read-out: OR13a response (VUAA1-normalized response), VOC concentration 10 μM
[8] = HEK293, read-out: OR13a response (VUAA1-normalized response), VOC concentration 100 μM
[9] = concentration 1, normalized fluorescence change, values below 0.05 threshold given as 0
[10] = concentration 10, normalized fluorescence change, values below 0.05 threshold given as 0
[11] = concentration 100, normalized fluorescence change, values below 0.05 threshold given as 0
[12] = HEK293, read-out: Average response
[13] = HEK293, read-out: OR98a response (VUAA1-normalized response)
[14] = ligand concentration 1 (unit not given), threshold 0.05, below shown as 0
[15] = ligand concentration 10 (unit not given), threshold 0.05, below shown as 0
[16] = ligand concentration 100 (unit not given), threshold 0.05, below shown as 0
[17] = HEK293, read-out: OR98a Average response (VUAA1-normalized)

SMILES	activation at 1 µM [1, 3]	activation at 10 µM [1, 4]	activation at 100 µM [1, 5]	activation at 1 µM [1, 6]	activation at 10 µM [1, 7]	activation at 100 µM [1, 8]	activation at 1 µM [2, 12]	activation at 10 µM [2, 12]	activation at 100 µM [2, 12]	activation at 1 µM [2, 13]	activation at 10 µM [2, 13]	activation at 100 µM [2, 13]	DF norm AVERAGE OR13a [1, 14]	DF norm AVERAGE OR13a [1, 15]	DF norm AVERAGE OR13a [1, 16]	DF norm AVERAGE OR98a [2, 14]	DF norm AVERAGE OR98a [2, 15]	DF norm AVERAGE OR98a [2, 16]	other results
C=C1CC[C@H]2O[C@]2(C)CC[C@@H]2[C@@H]1CC2(C)C [(-)-caryophyllene oxide]	0%	0%	0%	0%	0%	0%	0%	4%	0%	0%	0%	0%	–	–	–	–	–	–	DF norm AVERAGE OR13a [1, 9]: 0; DF norm AVERAGE OR13a [1, 10]: 0; DF norm AVERAGE OR13a [1, 11]: 0; DF norm AVERAGE OR98a [2, 9]: 0; DF norm AVERAGE OR98a [2, 10]: 0; DF norm AVERAGE OR98a [2, 11]: 0
Cc1ccc(C(C)C)cc1 [p-cymene]	0%	0%	0%	–	–	–	0%	4%	3.65%	–	–	–	0	0	0	0	0	0	OR13a response (VUAA1-normalized) at 1 μM ([1]; OR13a cell line, VOC concentration 1 μM): 0.00; OR13a response (VUAA1-normalized) at 10 μM ([1]; OR13a cell line, VOC concentration 10 μM): 0.00; OR13a response (VUAA1-normalized) at 100 μM ([1]; OR13a cell line, VOC concentration 100 μM): 0.00; OR98a response (VUAA1-normalized) at 1 μM ([2]; OR98a cell line, VOC concentration 1 μM): 0.00; OR98a response (VUAA1-normalized) at 10 μM ([2]; OR98a cell line, VOC concentration 10 μM): 0.00; OR98a response (VUAA1-normalized) at 100 μM ([2]; OR98a cell line, VOC concentration 100 μM): 0.00
CCOC(=O)CC [ethyl propionate]	0%	0%	0%	0%	0%	0%	2%	2%	1.5%	0%	0%	0%	0	0	0	0	0	0	–
CC/C=C/CCO [e3-hexenol]	–	–	–	–	–	–	–	–	–	–	–	–	0	0	0.07115	0	0	0	OR13a Average response (VUAA1-normalized) ([1]; 1 μM VOC, 50 μM VUAA1 = 1, responses not exceeding 0.05 considered 0): 0.00; OR13a Average response (VUAA1-normalized) ([1]; 10 μM VOC, 50 μM VUAA1 = 1, responses not exceeding 0.05 considered 0): 0.00; OR13a Average response (VUAA1-normalized) ([1]; 100 μM VOC, 50 μM VUAA1 = 1, responses not exceeding 0.05 considered 0): 0.07; Average response ([2]; cc. 1 µM, OR98a cell line): 0.00; Average response ([2]; cc. 10 µM, OR98a cell line): 0.00; Average response ([2]; cc. 100 µM, OR98a cell line): 0.00
CCCCOC(C)=O [butyl acetate]	0%	0%	1.56%	0%	0%	0%	3.31%	0%	4.29%	0%	0%	0%	0	0	0	0	0	0	–
CC(=O)c1ccccc1 [acetophenone]	0%	0%	0%	0%	0%	0%	4%	0%	0%	0%	0%	0%	0	0	0	0	0	0	–
CCCCCC(O)CC (stereo not drawn) [3-octanol]	0%	0%	12%	0%	0%	12%	1.89%	3.68%	13%	0%	0%	13%	–	–	–	–	–	–	DF norm AVERAGE OR13a [1, 9]: 0; DF norm AVERAGE OR13a [1, 10]: 0; DF norm AVERAGE OR13a [1, 11]: 0.1167; activation at 1 µM [2, 17]: 2%; activation at 10 µM [2, 17]: 4%; activation at 100 µM [2, 17]: 13%; DF norm AVERAGE OR98a [2, 9]: 0; DF norm AVERAGE OR98a [2, 10]: 0; DF norm AVERAGE OR98a [2, 11]: 0.1274
